What was measured:
Test in all cases: relative viability (nuclei count vs DMSO), 5 days (fraction); higher = more cells survive
[1] = compound: CN(c1ncccc1CNc1nc(Nc2ccc3c(c2)CC(=O)N3)ncc1C(F)(F)F)S(C)(=O)=O + Nc1nc2[nH]cc(CCc3ccc(C(=O)N[C@@H](CCC(=O)O)C(=O)O)cc3)c2c(=O)[nH]1 [Pemetrexed] (partner 0.2 µM)
Summary of the method: (§1)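 After 5 days of treatment, lung cancer cells in 1536-well plates were fixed and stained in a single step (final 0.05% Triton X-100, 1% formaldehyde, 1 ug/ml Hoechst) and their nuclei counted on 4× images. Treatment had been applied by pin tool the day after seeding as one drug alone or as a fixed anchor-drug dose with five library-drug doses (not always all listed) in √10 steps. Relative viability is the nuclei count of treated wells divided by that of vehicle wells, and values are medians of duplicate plates.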

[2] = compound: CN(c1ncccc1CNc1nc(Nc2ccc3c(c2)CC(=O)N3)ncc1C(F)(F)F)S(C)(=O)=O + Cc1nc(NC(=O)N2CCC[C@H]2C(N)=O)sc1-c1ccnc(C(C)(C)C(F)(F)F)c1 [Alpelisib] (partner 2 µM)
Summary of the method: as §1

[3] = compound: CN(c1ncccc1CNc1nc(Nc2ccc3c(c2)CC(=O)N3)ncc1C(F)(F)F)S(C)(=O)=O + CC(=O)c1c(C)c2cnc(Nc3ccc(N4CCNCC4)cn3)nc2n(C2CCCC2)c1=O [Palbociclib] (partner 0.5 µM)
Summary of the method: as §1

[4] = compound: CN(c1ncccc1CNc1nc(Nc2ccc3c(c2)CC(=O)N3)ncc1C(F)(F)F)S(C)(=O)=O + O=C(c1cc(Cc2n[nH]c(=O)c3ccccc23)ccc1F)N1CCN(C(=O)C2CC2)CC1 [Olaparib] (partner 8 µM)
Summary of the method: as §1

For LXF-289, the relative viability ([1]; first compound 0.01 µM) was 1.03, the relative viability ([1]; first compound 0.03162 µM) was 0.829 and the relative viability ([1]; first compound 0.1 µM) was 0.864. The relative viability ([1]; first compound 0.3162 µM) was 0.804, the relative viability ([1]; first compound 1 µM) was 0.871 and the relative viability ([2]; first compound 0.01 µM) was 1.05. The relative viability ([2]; first compound 0.03162 µM) was 1.07, the relative viability ([2]; first compound 0.1 µM) was 1.07 and the relative viability ([2]; first compound 0.3162 µM) was 0.988. The relative viability ([2]; first compound 1 µM) was 0.947, the relative viability ([3]; first compound 0.01 µM) was 0.63 and the relative viability ([3]; first compound 0.03162 µM) was 0.592. For the same cell line, the relative viability ([3]; first compound 0.1 µM) was 0.567, the relative viability ([3]; first compound 0.3162 µM) was 0.639 and the relative viability ([3]; first compound 1 µM) was 0.582. The relative viability ([4]; first compound 0.01 µM) was 1.1, the relative viability ([4]; first compound 0.03162 µM) was 1.21 and the relative viability ([4]; first compound 0.1 µM) was 1.04. For the same cell line, the relative viability ([4]; first compound 0.3162 µM) was 1.11 and the relative viability ([4]; first compound 1 µM) was 1.02.
For NCI-H23, the relative viability ([1]; first compound 0.01 µM) was 0.691, the relative viability ([1]; first compound 0.03162 µM) was 0.618 and the relative viability ([1]; first compound 0.1 µM) was 0.779. The relative viability ([1]; first compound 0.3162 µM) was 0.62, the relative viability ([1]; first compound 1 µM) was 0.605 and the relative viability ([2]; first compound 0.01 µM) was 0.668. The relative viability ([2]; first compound 0.03162 µM) was 0.84, the relative viability ([2]; first compound 0.1 µM) was 0.727 and the relative viability ([2]; first compound 0.3162 µM) was 0.692. The relative viability ([2]; first compound 1 µM) was 0.56, the relative viability ([3]; first compound 0.01 µM) was 0.581 and the relative viability ([3]; first compound 0.03162 µM) was 0.538. It also gave a relative viability ([3]; first compound 0.1 µM) of 0.549, a relative viability ([3]; first compound 0.3162 µM) of 0.618 and a relative viability ([3]; first compound 1 µM) of 0.455. It also gave a relative viability ([4]; first compound 0.01 µM) of 0.337, a relative viability ([4]; first compound 0.03162 µM) of 0.345 and a relative viability ([4]; first compound 0.1 µM) of 0.389. It also gave a relative viability ([4]; first compound 0.3162 µM) of 0.319 and a relative viability ([4]; first compound 1 µM) of 0.306.
Work on NCI-H322M yielded a relative viability ([1]; first compound 0.01 µM) of 0.615, a relative viability ([1]; first compound 0.03162 µM) of 0.606 and a relative viability ([1]; first compound 0.1 µM) of 0.651. It also gave a relative viability ([1]; first compound 0.3162 µM) of 0.635, a relative viability ([1]; first compound 1 µM) of 0.714 and a relative viability ([2]; first compound 0.01 µM) of 0.821. The relative viability ([2]; first compound 0.03162 µM) was 0.79, the relative viability ([2]; first compound 0.3162 µM) was 0.902 and the relative viability ([2]; first compound 1 µM) was 0.96. It also gave a relative viability ([3]; first compound 0.01 µM) of 0.481, a relative viability ([3]; first compound 0.03162 µM) of 0.503 and a relative viability ([3]; first compound 0.1 µM) of 0.529. The relative viability ([3]; first compound 0.3162 µM) was 0.475, the relative viability ([3]; first compound 1 µM) was 0.488 and the relative viability ([4]; first compound 0.01 µM) was 0.741. The relative viability ([4]; first compound 0.03162 µM) was 0.774, the relative viability ([4]; first compound 0.1 µM) was 0.739 and the relative viability ([4]; first compound 0.3162 µM) was 0.878. The relative viability ([4]; first compound 1 µM) was 0.832.
In the case of NCI-H358, the relative viability ([1]; first compound 0.01 µM) is reported as 0.148, the relative viability ([1]; first compound 0.03162 µM) is reported as 0.164 and the relative viability ([1]; first compound 0.1 µM) is reported as 0.169. It also gave a relative viability ([1]; first compound 0.3162 µM) of 0.177, a relative viability ([1]; first compound 1 µM) of 0.156 and a relative viability ([2]; first compound 0.01 µM) of 1.03. It also gave a relative viability ([2]; first compound 0.03162 µM) of 0.824, a relative viability ([2]; first compound 0.1 µM) of 0.737 and a relative viability ([2]; first compound 0.3162 µM) of 0.753. For the same cell line, the relative viability ([2]; first compound 1 µM) was 0.669, the relative viability ([3]; first compound 0.01 µM) was 0.135 and the relative viability ([3]; first compound 0.03162 µM) was 0.113. For the same cell line, the relative viability ([3]; first compound 0.1 µM) was 0.145, the relative viability ([3]; first compound 0.3162 µM) was 0.119 and the relative viability ([3]; first compound 1 µM) was 0.0943. For the same cell line, the relative viability ([4]; first compound 0.01 µM) was 0.61, the relative viability ([4]; first compound 0.03162 µM) was 0.57 and the relative viability ([4]; first compound 0.1 µM) was 0.573. For the same cell line, the relative viability ([4]; first compound 0.3162 µM) was 0.532 and the relative viability ([4]; first compound 1 µM) was 0.416.
NCI-H441 was tested, and the relative viability ([1]; first compound 0.01 µM) was 0.222, the relative viability ([1]; first compound 0.03162 µM) was 0.262 and the relative viability ([1]; first compound 0.1 µM) was 0.244. It also gave a relative viability ([1]; first compound 0.3162 µM) of 0.292, a relative viability ([1]; first compound 1 µM) of 0.262 and a relative viability ([2]; first compound 0.01 µM) of 0.624. The relative viability ([2]; first compound 0.03162 µM) was 0.65, the relative viability ([2]; first compound 0.1 µM) was 0.557 and the relative viability ([2]; first compound 0.3162 µM) was 0.793. For the same cell line, the relative viability ([2]; first compound 1 µM) was 0.614, the relative viability ([3]; first compound 0.01 µM) was 0.23 and the relative viability ([3]; first compound 0.03162 µM) was 0.239. The relative viability ([3]; first compound 0.1 µM) was 0.181, the relative viability ([3]; first compound 0.3162 µM) was 0.176 and the relative viability ([3]; first compound 1 µM) was 0.16. For the same cell line, the relative viability ([4]; first compound 0.01 µM) was 0.633, the relative viability ([4]; first compound 0.03162 µM) was 0.592 and the relative viability ([4]; first compound 0.1 µM) was 0.466. The relative viability ([4]; first compound 0.3162 µM) was 0.486 and the relative viability ([4]; first compound 1 µM) was 0.408.
For NCI-H460, the relative viability ([1]; first compound 0.01 µM) was 0.0683, the relative viability ([1]; first compound 0.03162 µM) was 0.0581 and the relative viability ([1]; first compound 0.1 µM) was 0.0611. It also gave a relative viability ([1]; first compound 0.3162 µM) of 0.0605, a relative viability ([1]; first compound 1 µM) of 0.0728 and a relative viability ([2]; first compound 0.01 µM) of 0.519. For the same cell line, the relative viability ([2]; first compound 0.03162 µM) was 0.577, the relative viability ([2]; first compound 0.1 µM) was 0.487 and the relative viability ([2]; first compound 0.3162 µM) was 0.443. It also gave a relative viability ([2]; first compound 1 µM) of 0.508, a relative viability ([3]; first compound 0.01 µM) of 0.147 and a relative viability ([3]; first compound 0.03162 µM) of 0.179. It also gave a relative viability ([3]; first compound 0.1 µM) of 0.148, a relative viability ([3]; first compound 0.3162 µM) of 0.21 and a relative viability ([3]; first compound 1 µM) of 0.15. It also gave a relative viability ([4]; first compound 0.01 µM) of 0.443, a relative viability ([4]; first compound 0.03162 µM) of 0.573 and a relative viability ([4]; first compound 0.1 µM) of 0.464. The relative viability ([4]; first compound 0.3162 µM) was 0.464 and the relative viability ([4]; first compound 1 µM) was 0.396.
In the case of NCI-H520, the relative viability ([1]; first compound 0.01 µM) is reported as 0.609, the relative viability ([1]; first compound 0.03162 µM) is reported as 0.924 and the relative viability ([1]; first compound 0.1 µM) is reported as 0.632. The relative viability ([1]; first compound 0.3162 µM) was 0.768, the relative viability ([1]; first compound 1 µM) was 0.705 and the relative viability ([2]; first compound 0.01 µM) was 0.985. For the same cell line, the relative viability ([2]; first compound 0.03162 µM) was 0.894, the relative viability ([2]; first compound 0.1 µM) was 0.829 and the relative viability ([2]; first compound 0.3162 µM) was 0.96. For the same cell line, the relative viability ([2]; first compound 1 µM) was 1, the relative viability ([3]; first compound 0.01 µM) was 0.27 and the relative viability ([3]; first compound 0.03162 µM) was 0.209. For the same cell line, the relative viability ([3]; first compound 0.1 µM) was 0.244, the relative viability ([3]; first compound 0.3162 µM) was 0.262 and the relative viability ([3]; first compound 1 µM) was 0.24. For the same cell line, the relative viability ([4]; first compound 0.01 µM) was 0.325, the relative viability ([4]; first compound 0.03162 µM) was 0.318 and the relative viability ([4]; first compound 0.1 µM) was 0.35. The relative viability ([4]; first compound 0.3162 µM) was 0.394 and the relative viability ([4]; first compound 1 µM) was 0.423.
In the case of NCI-H647, the relative viability ([1]; first compound 0.01 µM) is reported as 0.192, the relative viability ([1]; first compound 0.03162 µM) is reported as 0.163 and the relative viability ([1]; first compound 0.1 µM) is reported as 0.167. It also gave a relative viability ([1]; first compound 0.3162 µM) of 0.178, a relative viability ([1]; first compound 1 µM) of 0.17 and a relative viability ([2]; first compound 0.01 µM) of 1.09. The relative viability ([2]; first compound 0.03162 µM) was 0.919, the relative viability ([2]; first compound 0.1 µM) was 1.14 and the relative viability ([2]; first compound 0.3162 µM) was 1.02. The relative viability ([2]; first compound 1 µM) was 1.17, the relative viability ([3]; first compound 0.01 µM) was 0.349 and the relative viability ([3]; first compound 0.03162 µM) was 0.402. The relative viability ([3]; first compound 0.1 µM) was 0.319, the relative viability ([3]; first compound 0.3162 µM) was 0.367 and the relative viability ([3]; first compound 1 µM) was 0.322. For the same cell line, the relative viability ([4]; first compound 0.01 µM) was 0.528, the relative viability ([4]; first compound 0.03162 µM) was 0.494 and the relative viability ([4]; first compound 0.1 µM) was 0.708. For the same cell line, the relative viability ([4]; first compound 0.3162 µM) was 0.597 and the relative viability ([4]; first compound 1 µM) was 0.488.

Reference: the supplement of paper PMC10307832
